Results as given in BigSolDB 2.1.

SMILES: C[C@H]1[C@H](C)CC[C@]2(C(=O)O)CC[C@]3(C)C(=CC[C@@H]4[C@@]5(C)CC[C@H](O)C(C)(C)[C@@H]5CC[C@]43C)[C@H]12
- solubility (mole fraction) (in ethanol, 293.6 K): 0.000514
- solubility (mole fraction) (in ethanol, 300.1 K): 0.000766
- solubility (mole fraction) (in ethanol, 305.2 K): 0.000735
- solubility (mole fraction) (in ethanol, 310 K): 0.000761
- solubility (mole fraction) (in ethanol, 320.1 K): 0.00105
- solubility (mole fraction) (in ethanol, 323.2 K): 0.00105
- solubility (mole fraction) (in ethanol, 329.7 K): 0.00116
- solubility (mole fraction) (in ethyl acetate, 293.6 K): 0.000777
- solubility (mole fraction) (in ethyl acetate, 300.1 K): 0.000771
- solubility (mole fraction) (in ethyl acetate, 305.2 K): 0.00101
- solubility (mole fraction) (in ethyl acetate, 310 K): 0.00113
- solubility (mole fraction) (in ethyl acetate, 320.1 K): 0.00155
- solubility (mole fraction) (in ethyl acetate, 323.2 K): 0.00162
- solubility (mole fraction) (in ethyl acetate, 329.7 K): 0.00186
- solubility (mole fraction) (in isopropanol, 293.6 K): 0.00144
- solubility (mole fraction) (in isopropanol, 300.1 K): 0.00181
- solubility (mole fraction) (in isopropanol, 305.2 K): 0.00197
- solubility (mole fraction) (in isopropanol, 310 K): 0.00213
- solubility (mole fraction) (in isopropanol, 320.1 K): 0.00273
- solubility (mole fraction) (in isopropanol, 323.2 K): 0.00275
- solubility (mole fraction) (in isopropanol, 329.7 K): 0.00295
- solubility (mole fraction) (in methanol, 293.6 K): 0.000723
- solubility (mole fraction) (in methanol, 300.1 K): 0.000851
- solubility (mole fraction) (in methanol, 305.2 K): 0.000931
- solubility (mole fraction) (in methanol, 310 K): 0.00102
- solubility (mole fraction) (in methanol, 320.1 K): 0.00133
- solubility (mole fraction) (in methanol, 323.2 K): 0.00132
- solubility (mole fraction) (in methanol, 329.7 K): 0.00146
